System: serum ACE
Test: oral effectiveness: intrinsic serum ACE activity in unanesthetized rabbits
Format: in vivo
Conditions: oral 1 mg, about 1 kg rabbit
Description: A. ACE activity assay. For most experiments described herein, the enzyme ACE was assayed in 0.05M Hepes buffer, pH 8.0 containing 0.1M NaCl and 0.75M Na2 SO4. The substrate employed was Benzoyl-GlyHisLeu at a final concentration of 1×10^-4 M, together with about 130,000 cpm of [^3 H]-Benzoyl GlyHisLeu (25 Ci/mmole). Enzyme was diluted in the above buffer such that 40 μl buffered enzyme was capable of hydrolyzing 13% of substrate in a 15-minute incubation at 37° C. To initiate the assay, 40 μl of enzyme and 10 μl of water or inhibitor dissooved in water were preincubated for five minutes at 37° C. Substrate, 50 μl, was then added to initiate reaction and the solution was incubated for 15 minutes at 37° C. To terminate the reaction, 1 ml of 0.1M HCl was added, following which 1 ml of ethyl acetate was added. The mixture was agitated on a rotary mixer and centrifuged briefly to separate the phases.
Young, unanesthetized rabbits, fasted overnight, weighing about 1 kg, were given compound (I). The compound was dissolved in water at alkaline pH, 1 mg of (I) in 3 ml water containing 50 μl 1N NaHCO3. Blood samples, 0.5 ml, were collected at timed intervals from a marginal ear vein. Sera obtained after clot formation and centrifugation were assayed for intrinsic ACE activity, using 1 μl in the assay of Example 216A.

## C[C@H](CSC(=O)C(Cc1ccccc1)NC(=O)c1ccccc1)C(=O)N1CCC[C@H]1C(=O)O (stereo partly drawn) [Compound (I), 2-benzoylphenylalanylthio-2-D-methylpropanoyl-L-proline]
0.167 h, Rabbit 1
  Serum ACE activity: 7% of Control
0.167 h, Rabbit 2
  Serum ACE activity: 11% of Control
0.33 h, Rabbit 1
  Serum ACE activity: 8% of Control
0.33 h, Rabbit 2
  Serum ACE activity: 9% of Control
0.5 h, Rabbit 1
  Serum ACE activity: 7% of Control
0.5 h, Rabbit 2
  Serum ACE activity: 8% of Control
1.0 h, Rabbit 1
  Serum ACE activity: 20% of Control
1.0 h, Rabbit 2
  Serum ACE activity: 44% of Control
1.5 h, Rabbit 1
  Serum ACE activity: 14% of Control
1.5 h, Rabbit 2
  Serum ACE activity: 55% of Control
2.0 h, Rabbit 1
  Serum ACE activity: 11% of Control
2.0 h, Rabbit 2
  Serum ACE activity: 44% of Control
2.5 h, Rabbit 1
  Serum ACE activity: 12% of Control
2.5 h, Rabbit 2
  Serum ACE activity: 40% of Control
3.0 h, Rabbit 1
  Serum ACE activity: 30% of Control
4.0 h, Rabbit 1
  Serum ACE activity: 23% of Control
5.0 h, Rabbit 1
  Serum ACE activity: 19% of Control
20.0 h, Rabbit 1
  Serum ACE activity: 70% of Control

From patent US4745124A, “Orally effective anti-hypertensive agents” (priority 1983, dated 1988)
